Experimental data from publication PMC5124248, “Antitumor activity of TY-011 against gastric cancer by inhibiting Aurora A, Aurora B and VEGFR2 kinases” (Journal of Experimental & Clinical Cancer Research : CR, 2016).
Values joined by “and” are separate entries in the source; they are usually repeats but may differ in a detail not shown here. Identical values can stand only once. “Also recorded” adds a separate entry of the source. Like-named read-outs stand apart in the source and are kept apart here. Marks after values point to notes of the source that are not given here.

Key:
Aurora A = target: T1, Aurora A (Homo sapiens, UniProt O14965); assay: HTRF KinEASE-STK kinase assay, Aurora A; type: biochemical
T1 construct: gift from Professor Jia Li, Shanghai Institute of Materia Medica/Chinese Academy of Sciences
T1 sequence (O14965 1-403): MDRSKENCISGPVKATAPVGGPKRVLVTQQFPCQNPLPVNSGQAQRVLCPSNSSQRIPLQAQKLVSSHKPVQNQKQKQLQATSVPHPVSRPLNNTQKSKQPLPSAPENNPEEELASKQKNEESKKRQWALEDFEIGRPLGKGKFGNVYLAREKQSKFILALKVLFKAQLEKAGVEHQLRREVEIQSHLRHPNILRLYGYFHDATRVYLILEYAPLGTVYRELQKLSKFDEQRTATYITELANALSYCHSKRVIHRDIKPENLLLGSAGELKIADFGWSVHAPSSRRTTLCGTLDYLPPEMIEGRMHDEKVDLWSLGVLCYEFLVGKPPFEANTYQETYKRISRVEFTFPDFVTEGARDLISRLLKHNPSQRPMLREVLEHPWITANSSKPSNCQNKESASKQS
From the text: The inhibition of TY-011 on activity of Aurora A, Aurora B and VEGFR2 was characterized by HTRF® KinEASE™-STK/TK kit according to the manufacturer’s instructions (Cisbio Assays, Codolet, France). Aurora A and Aurora B were gifts from Professor Jia Li, Shanghai Institute of Materia Medica/Chinese Academy of Sciences. VEGFR2 was purchased from Carna Biosciences (Kobe, Japan).

SNU-16 cells = assay: CCK-8 cell proliferation assay, SNU-16; type: cell-based; settings: Homo sapiens; SNU-16, CCK-8, Fig. 3
Method: (§1) During the logarithmic growth phase, each cell line was seeded in a 96-well tissue culture plate (Thermo Fisher Scientific, Waltham, MA, USA) at a predetermined density in complete medium, attached overnight and treated with compound for the indicated time. The medium was discarded and replaced with 10% CCK-8 (Dojindo, Kumamoto, Japan) in complete medium, then incubated the plates for another 2 h. The OD450 was measured with SpectraMax M5 (Molecular Devices, CA, USA). A background absorbance of ODblank was subtracted from all wells. The survival rate was determined with following formula: Survival rate (%) = ODcompound/ODDMSO × 100%. The IC50 values were calculated by concentration − response curve fitting using the four parameter method.

HUVECs [1] = assay: VEGF- or FBS-induced HUVEC proliferation assay (CCK-8); type: cell-based, human; settings: for IC50: Homo sapiens, HUVEC
Method: as §1
In VEGF-induced HUVEC proliferation assay, HUVECs cells were seeded in a 96-well tissue culture plate at a predetermined density in HUVEC basic medium with 0.5% FBS. After the cells attached, cells were treated with different concentration of TY-011 in the presence of 50 ng/ml VEGF165 (R&D systems, Minneapolis, MN, USA) or 10% FBS. The CCK-8 assay as above was used for determination of cell viability.

MGC-803 cells = assay: Cell cycle analysis by flow cytometry, MGC-803; type: cell-based, human
Method: (§2) Cell cycle distribution was determined by flow cytometry measurement of DNA content after cells were incubated with RNase A (50 μg/ml) and propidium iodide (50 μg/ml). The cellular DNA content was measured on a flow cytometer (Guava EasyCyte 6HT-2 L, Merck Millipore, Billerica, MA, USA). The percentage of each population was analyzed using the InCyte software. At least 20 000 cells were analyzed for each data point.

SGC-7901 cells = assay: Cell cycle analysis by flow cytometry, SGC-7901; type: cell-based, human
Method: as §2

human MGC-803 xenograft = assay: Antitumor activity in vivo, MGC-803 xenograft in nude mice; design: species or system BALB/c nu/nu mice; settings: for Inhibition rate (%): by tumor weight; for Body weight (g) End / Body weight (g) Start / Tumor volume (mm^3) End / Tumor volume (mm^3) Start / Tumor weight: mean ± SEM; for Tumor weight: control 0.79 g
Method: The animals were housed in specific pathogen-free (SPF) conditions at Key Laboratory of Brain Functional Genomics, Ministry of Education, and were acclimatized for a week prior to use. […] When the tumors reached a mean group size of 100 ~ 150 mm^3, the mice were randomized into control and treatment groups to receive treatment accordingly. […] The tumor growth was recorded with the measurement of length (L) and width (W) by caliper every other day, and calculated as tumor volume (V) = L × W^2/2. Meanwhile, the body weights of mice were recorded. The tumor volume at day n was expressed as relative tumor volume (RTV) according to the following formula: RTV% = (TVn/TV0) ×100%, where TVn is the tumor volume at day n and TV0 is the tumor volume at day 0. The therapeutic effect of treatment was calculated with formula T/C (%) = mean RTV of the treated group/mean RTV of the control group × 100%. […] The tumor regression of individual mouse was defined as the tumor volume at the end was less than the tumor volume when treatment was initiated.

HUVECs [2] = assay: HUVEC tube formation assay; type: cell-based, human; settings: HUVECs on Matrigel, 6 h
Method: HUVECs were seeded onto pre-cooled 96-well tissue culture plate coated with Matrigel™ (BD Biosciences, FranklinLakes, NJ). After the cells attached, the cells were treated by various concentration of TY-011 or equivalent amount of DMSO. The plate was incubated at 37 °C, 5% CO2 humidified atmosphere for 6 h, then cell morphology was captured with a microscopy (Olympus IX73, Tokyo, Japan).

[3] = 3 mg/kg oral once a day for 13 days
[4] = 6 mg/kg oral once a day for 13 days
[5] = 9 mg/kg oral once a day for 13 days

CCc1cc2c(cn1)C(c1ccccc1Cl)=Nc1c(n[nH]c1C)N2 [TY-011, 9-(2-chloro-phenyl)-6-ephyl-1-methyl-2,4-dihydro-2,3,4,7,10-pentaaza-benzo[f]azulene]
IC50 (Aurora A; Table S1, read-out: IC50 Aurora A): 100 nM
IC50 (Aurora A; mean ± SD of three independent experiments, read-out: Aurora A IC50): 102 ± 10.1 nM
IC50 (SNU-16 cells): 90 ± 20 nM
IC50 in cells treated with VEGF lower than in cells treated with FBS (HUVECs [1]; 72 h): 13 fold
IC50 (HUVECs [1]; 50 ng/ml VEGF165, 72 h, read-out: VEGF IC50): 461 ± 61.8 nM
IC50 (HUVECs [1]; 10% FBS, 72 h, read-out: FBS IC50): 6100 ± 16.4 nM
G2/M phase cells (MGC-803 cells; MGC-803, 0.2 μM, 12 h (from 26.4%)): 51.4%
cells with >4 N DNA content (MGC-803 cells; MGC-803, 0.2 μM, 48 h): 39.8%
proportion of cells with >4 N DNA content (MGC-803 cells; MGC-803, 0.4 μM, 24 h (4.3% no treatment)): 29.5%
proportion of G2/M phase cells (MGC-803 cells; MGC-803, 0.4 μM, 24 h (28.8% no treatment)): 65.0%
G2/M phase cells (SGC-7901 cells; SGC-7901, 0.5 μM, 12 h (from 31.6%)): 45.1%
cells with >4 N DNA content (SGC-7901 cells; SGC-7901, 0.5 μM, 48 h): 13.9%
proportion of cells with >4 N DNA content (SGC-7901 cells; SGC-7901, 1 μM, 24 h (6.7% no treatment)): 14.7%
proportion of G2/M phase cells (SGC-7901 cells; SGC-7901, 1 μM, 24 h (34.0% no treatment)): 78.6%
T/C (%) (human MGC-803 xenograft; [3]): 54.55%
TGI (%) (human MGC-803 xenograft; [3]): 59.41%
Inhibition rate (%) (human MGC-803 xenograft; [3]): 64.9%
Body weight (g) End (human MGC-803 xenograft; [3]): 21.8 ± 0.1 g
Body weight (g) Start (human MGC-803 xenograft; [3]): 20.8 ± 0.1 g
Tumor volume (mm^3) End (human MGC-803 xenograft; [3]): 433.6 ± 16.2*** mm^3
Tumor volume (mm^3) Start (human MGC-803 xenograft; [3]): 192.8 ± 7.1 mm^3
Tumor weight (human MGC-803 xenograft; [3]): 0.28 g and 0.28 ± 0.02 g
T/C (%) (human MGC-803 xenograft; [4]): 21.82%
TGI (%) (human MGC-803 xenograft; [4]): 103.77%
tumor regression (share of mice) (human MGC-803 xenograft; 6 mg/kg oral once a day for 13 days, 6/8 mice): 75%
Inhibition rate (%) (human MGC-803 xenograft; [4]): 87.7%
Body weight (g) End (human MGC-803 xenograft; [4]): 20.3 ± 0.2 g
Body weight (g) Start (human MGC-803 xenograft; [4]): 20.9 ± 0.1 g
Tumor volume (mm^3) End (human MGC-803 xenograft; [4]): 168.8 ± 7.1*** mm^3
Tumor volume (mm^3) Start (human MGC-803 xenograft; [4]): 191.2 ± 6.2 mm^3
Tumor weight (human MGC-803 xenograft; [4]): 0.10 g and 0.10 ± 0.01 g
T/C (%) (human MGC-803 xenograft; [5]): 14.53%
TGI (%) (human MGC-803 xenograft; [5]): 113.09%
tumor regression (share of mice) (human MGC-803 xenograft; 9 mg/kg oral once a day for 13 days, 8/8 mice): 100%
Inhibition rate (%) (human MGC-803 xenograft; [5]): 89.0%
Body weight (g) End (human MGC-803 xenograft; [5]): 21.7 ± 0.1 g
Body weight (g) Start (human MGC-803 xenograft; [5]): 21.4 ± 0.1 g
Tumor volume (mm^3) End (human MGC-803 xenograft; [5]): 111.4 ± 3.6*** mm^3
Tumor volume (mm^3) Start (human MGC-803 xenograft; [5]): 189.0 ± 4.9 mm^3
Tumor weight (human MGC-803 xenograft; [5]): 0.09 g and 0.09 ± 0.01 g
drug-related deaths and body weight of mice (human MGC-803 xenograft; 3, 6 and 9 mg/kg oral once a day for 13 days): did not affect the body weight of mice; also recorded: did not cause drug-related deaths or any loss in body weight of mice
damages to vital organs (heart, liver, spleen, lung and kidney) or clinical signs (human MGC-803 xenograft; mice treated with TY-011, data not shown): no obvious damages to vital organs
tube meshes (tube formation) (HUVECs [2]): disturbed
